Reference: US20110092439A1, “METHOD OF PROMOTING WOUND HEALING” (priority 2008, published 2011)
“Also recorded” adds a separate entry of the source.

Tests used:
[1] = system: 20×6 mm incisional wounds on the back; experiment: Porcine skin wound study; format: in vivo, juvenile pigs
From the text: Overview of the Animal Study. In selecting the appropriate animal for this study, a pig was selected because of the anatomical similarities between pig skin and human skin. In fact, pig wound healing has been used in numerous studies to simulate human skin (Sullivan et al., Wound Repair Regen. 9: 66-76, 2001).
Design of Study. In this study, juvenile pigs were oriented with twelve wound sites per animal—20×6 mm incisional wounds on the back—over the course of a six week study (see FIG. 2). Systemic relaxin was delivered via mini-pumps to achieve 20 ng/mL serum concentrations. Topical formulations were prepared by Dow Pharma, and consisted of propylene glycol and ethanol, which contributed to good long term stability of the therapeutic agent. Dosages consisting of placebo, 0.5 mg/mL (low dose), and 2.5 mg/mL (high dose) were prepared. The goals of the study were to assess the safety of topical relaxin on wound healing and to determine the efficacy of relaxin as a treatment for wound healing and/or scar formation. During the first week, irrigation was performed once daily. During weeks 2-3, topical formulation was applied twice daily, and during weeks […], topical formulation was applied once daily.
Design of Drug. The study drug was relaxin (produced by recombinant technology). Recombinant relaxin is identical to the native human hormone H2 relaxin, produced using a recombinant single chain process. The active test article may be aseptically diluted to the desired concentration with the acetate diluent (20 mM sodium acetate, pH 5.0).
Study Procedures. Referring to FIG. 3 which depicts the back of a pig with incisions according to the experimental design described herein at the completion of six weeks, the wound in Section 3 was irrigated with relaxin construct during the first week, and subsequently treated with high dose topical relaxin formulation during weeks 2-6 as described above. Sections 4, 5, and 6 received no irrigation during week 1. Section 4 was treated with placebo. Section 5 was treated with low dose topical formulation, and Section 6 was treated with high dose topical formulation.
Cosmetic appearance of skin. Visual rankings of wound pictures were conducted by neutral observers who evaluated scabs during early wound healing (days 5-7) and scars at the end of the study (see FIG. 4). […] The results of this visual wound assessment determined that 89% of the time a relaxin treatment group was selected in the top three. Only 11% of the time, a group not treated with relaxin was selected in the top three.
A cosmetic score was also determined by a professional dermatologist at weeks 2, 4, and 6. The cosmetic score has five components: (1) color—matching with surrounding skin; (2) texture—no hardness; (3) distortion—no distortion of nearby skin; (4) contour—flush with surrounding skin; (5) global—no hypertrophy or keloid formation. During this dermatological assessment, evaluation at time 2 weeks was obscured by scabs, so the data for cosmetic scores was collected from evaluation at weeks 4 and 6 (see FIG. 5). […] In the bottom profile, the scar is visible.
Histological evaluation. A professional histopathologist evaluated the pathology of the treatments for such indications as granulation, inflammation, and necrosis. In judging granulation tissue, it is considered that early response to wound includes invasion of the site by fibroblasts, inflammatory cells, and new blood vessels. Over time, this resolves to more normal tissue as the site heals. Chronic inflammation characterized by the presence of macrophages, giant cells, lymphocytes, and PMNs indicated adverse reaction. Minor factors such as keratosis (formation of keratin layer outside the epidermis) and acanthosis (thickening of the epidermal layer) are also considered. […]

[2] = Canine gingiva study: RLX migration and degradation after gingival injection (SELDI-TOF MS); format: in vivo, dog; details: for migration of RLX through the gingiva: after gingival injection; for concentration of H2 RLX detected in treated gingiva: site of injection
Method: The aim of this study was to determine the rate of RLX migration and extent of degradation after gingival injections. […] Employing a dog model, RLX was administered and tissue punch biopsies were collected at the site of injection and 0.5, 1 and 2 cm from the site of injection. Tissue was collected at several time points including 1, 2 and 4 hrs after injection. Protein was extracted from the gingival biopsies and analysed via ProteinChip technology (Surface Enhanced Laser Desorption/Ionization Time-of-Flight Mass Spectrometry, SELDI-TOF MS), which combines two well-established methods of solid phase chromatography and TOF-MS into an integrated platform. ProteinChip arrays were coated with anti-H2 RLX Ab, allowing the specific capture of RLX and associated breakdown/modified products.
Design of Drug. Gingival injections were administered (25 μg H2 RLX/100 μl, 41 μM) and tissue was collected at several positions including the site of injection and 0.5, 1 and 2 cm from the site of injection. Tissue was collected 1, 2 and 3 hrs after injection.
a) Protein Extraction and Quantitation. Frozen gingival biopsies were homogenized in extraction buffer (10 μl/mg tissue) containing 10 mM Tris-HCl, 10 mM NaCl, 0.1% TFA and protease inhibitor (complete mini, Roche). The extract was centrifuged (6000×g) for 10 min and the supernatant was collected, aliquoted and stored at −80° C. Total protein concentration was determined using the Bradford assay. Protein concentrations ranged from 1.4 mg/ml to 2.8 mg/ml, all samples were standardized to 1.4 mg/ml in extraction buffer.
b) SELDI-TOF MS analysis—Analysis of RLX treated gingiva on PG20 arrays. Anti-H2 RLX Ab (2 μl/0.25 mg/ml; Genentech) or control IgG (Ciphergen Biosystems) was applied to each spot of a PS20 array which had been pre-coated with Protein G (Ciphergen Biosystems). After antibody binding, the chip was washed once with PBS/0.5% Triton X-100 for 5 min with agitation (5 μl per spot), followed by two PBS washes. Dog gingiva extracts (3 μl/1.4 mg/ml) were applied to each spot and incubated for 4 hrs. Non-specifically bound proteins were removed by sequentially washing with PBS/0.5% Triton X-100, PBS and 1 mM HEPES, pH 7.2. The chips were air dried and 1 μl of 50% saturated sinapinic acid in 50% (v/v) acetonitrile, 0.5% trifluoroacetic acid was applied onto each spot twice, arrays were air dried between each application. Chips were subsequently analysed by SELDI-TOF MS (Ciphergen Biosystems) using the following settings, laser 220 and sensitivity 9.
c) Generation of H2 RLX Std Curve on PG20 arrays. H2 RLX (batch number 11835-89) was spiked into control dog gingiva (1.4 mg/ml) at different concentrations, including 100 nM, 50 nM, 12.5 nM, 6.25 nM, 3.125 nM and 1.56 nM and analysed as described above.

[3] = as above; format: in vivo, dog
wounded sites = details: systemic relaxin, rats; cited from earlier work
tooth movement = details: RLX via gingival injections, dog models; cited from earlier work
[4] = systemic relaxin vs no systemic relaxin
[5] = systemic relaxin, after six weeks, blinded histopathology

relaxin
blood vessels in the wound site ([1]; after about six weeks of treatment): overall reduction
relaxin treatment group selected in the top three in visual wound assessment ([1]; blinded neutral observers ranking best three of six groups of wound pictures): 89 % of the time
adverse effects / tolerability over dose range ([1]; dose range 10-960 μg/kg/day): no relevant adverse effects; also recorded: well-tolerated
wound healing / cosmetic ranking with irrigation relaxin treatment versus topical only ([1]; irrigation week 1 then high dose topical weeks 2-6): particularly efficacious; also recorded: ranked higher overall
wound healing with topical-only relaxin compared to placebo ([1]; low dose 0.5 mg/mL and high dose 2.5 mg/mL topical formulation, six weeks): improved wound healing
adverse effects associated with relaxin treatment ([1]; pig, in vivo): no adverse effects
necrosis or inflammation associated with relaxin treatment ([1]; pig, in vivo): no necrosis or inflammation
scarring on histopathological slide ([1]; relaxin treatment, six weeks, no relaxin: severe scarring): mild scarring
wound healing after systemic treatment compared to topical administration ([1]; some indications): better wound healing
collagen organization (objective collagen scoring, red pixel ratio) [1, 4]: significantly better
composite wound healing score (three point collagen scale) [1, 4]: significantly improved
wound appearance versus control pig ([1]; systemic relaxin, after day six): healed faster, better
chronic inflammation in wound sites [1, 5]: reduces; also recorded: significantly reduced
granulation tissue in wound sites [1, 5]: reduces; also recorded: significantly reduced
scar visibility at wound site ([1]; systemic relaxin, six weeks of treatment, vs placebo (red scar visible)): invisible; also recorded: no scar was visible
RLX detection 0.5 cm from the site of injection ([2]; 1 hr time point): detected
RLX detection 1 cm from the site of injection ([2]; 1 hr time point): not detected
RLX detection 2 cm from the site of injection ([2]; 1 hr time point): not detected
migration of RLX through the gingiva [2]: stayed close to the injection site
migration of RLX through the gingiva ([2]; listed as RLX): stayed close to the injection site; also recorded: limited migration
concentration of H2 RLX detected in treated gingiva ([2]; 1 hr after gingival injection of 25 μg H2 RLX/100 μl): 90 nM
concentration of H2 RLX detected in treated gingiva ([2]; 2 hrs after gingival injection of 25 μg H2 RLX/100 μl): 78 nM
RLX detection at the remaining time points ([3]; 2 and 4 hrs): only detected at the site of injection
concentration of H2 RLX detected in treated gingiva ([3]; site of injection, 4 hrs after gingival injection of 25 μg H2 RLX/100 μl): 21 nM
VEGF and bFGF transcripts (wounded sites): upregulation
new blood vessel formation selectively at wounded sites (wounded sites): increased
relapse (tooth movement): prevent relapse
tooth movement (tooth movement): speed tooth movement
